Legend:
Assay type in all cases: functional
Details in all cases: read-out: GI
[1] = system: CCRF-CEM; experiment: Growth inhibition of human CCRF-CEM cells at 10 uM incubated for 48 hrs by sulforhodamine B assay relative to control
[2] = system: HL-60(TB); experiment: Growth inhibition of human HL-60(TB) cells at 10 uM incubated for 48 hrs by sulforhodamine B assay relative to control
[3] = system: K562; experiment: Growth inhibition of human K562 cells at 10 uM incubated for 48 hrs by sulforhodamine B assay relative to control
[4] = system: MOLT-4; experiment: Growth inhibition of human MOLT-4 cells at 10 uM incubated for 48 hrs by sulforhodamine B assay relative to control
[5] = system: RPMI-8226; experiment: Growth inhibition of human RPMI-8226 cells at 10 uM incubated for 48 hrs by sulforhodamine B assay relative to control
[6] = system: SR; experiment: Growth inhibition of human SR cells at 10 uM incubated for 48 hrs by sulforhodamine B assay relative to control
[7] = system: A549; experiment: Growth inhibition of human A549/ATCC cells at 10 uM incubated for 48 hrs by sulforhodamine B assay relative to control
[8] = system: HOP-62; experiment: Growth inhibition of human HOP-62 cells at 10 uM incubated for 48 hrs by sulforhodamine B assay relative to control
[9] = system: HOP-92; experiment: Growth inhibition of human HOP-92 cells at 10 uM incubated for 48 hrs by sulforhodamine B assay relative to control
[10] = system: NCI-H23; experiment: Growth inhibition of human NCI-H23 cells at 10 uM incubated for 48 hrs by sulforhodamine B assay relative to control
[11] = system: NCI-H522; experiment: Growth inhibition of human NCI-H522 cells at 10 uM incubated for 48 hrs by sulforhodamine B assay relative to control
[12] = system: HCC 2998; experiment: Growth inhibition of human HCC 2998 cells at 10 uM incubated for 48 hrs by sulforhodamine B assay relative to control
[13] = system: HCT-116; experiment: Growth inhibition of human HCT-116 cells at 10 uM incubated for 48 hrs by sulforhodamine B assay relative to control
[14] = system: HCT-15; experiment: Growth inhibition of human HCT-15 cells at 10 uM incubated for 48 hrs by sulforhodamine B assay relative to control
[15] = system: HT-29; experiment: Growth inhibition of human HT-29 cells at 10 uM incubated for 48 hrs by sulforhodamine B assay relative to control
[16] = system: KM12; experiment: Growth inhibition of human KM12 cells at 10 uM incubated for 48 hrs by sulforhodamine B assay relative to control
[17] = system: SF-268; experiment: Growth inhibition of human SF-268 cells at 10 uM incubated for 48 hrs by sulforhodamine B assay relative to control
[18] = system: SF-295; experiment: Growth inhibition of human SF-295 cells at 10 uM incubated for 48 hrs by sulforhodamine B assay relative to control
[19] = system: SF-539; experiment: Growth inhibition of human SF-539 cells at 10 uM incubated for 48 hrs by sulforhodamine B assay relative to control
[20] = system: SNB-19; experiment: Growth inhibition of human SNB-19 cells at 10 uM incubated for 48 hrs by sulforhodamine B assay relative to control
[21] = system: SNB-75; experiment: Growth inhibition of human SNB-75 cells at 10 uM incubated for 48 hrs by sulforhodamine B assay relative to control
[22] = system: U-251; experiment: Growth inhibition of human U-251 cells at 10 uM incubated for 48 hrs by sulforhodamine B assay relative to control
[23] = system: LOX IMVI; experiment: Growth inhibition of human LOX IMVI cells at 10 uM incubated for 48 hrs by sulforhodamine B assay relative to control
[24] = system: M14; experiment: Growth inhibition of human M14 cells at 10 uM incubated for 48 hrs by sulforhodamine B assay relative to control
[25] = system: MDA-MB-435; experiment: Growth inhibition of human MDA-MB-435 cells at 10 uM incubated for 48 hrs by sulforhodamine B assay relative to control
[26] = system: SK-MEL-28; experiment: Growth inhibition of human SK-MEL-28 cells at 10 uM incubated for 48 hrs by sulforhodamine B assay relative to control
[27] = system: SK-MEL-5; experiment: Growth inhibition of human SK-MEL-5 cells at 10 uM incubated for 48 hrs by sulforhodamine B assay relative to control
[28] = system: UACC-257; experiment: Growth inhibition of human UACC-257 cells at 10 uM incubated for 48 hrs by sulforhodamine B assay relative to control
[29] = system: UACC-62; experiment: Growth inhibition of human UACC-62 cells at 10 uM incubated for 48 hrs by sulforhodamine B assay relative to control
[30] = system: OVCAR-4; experiment: Growth inhibition of human OVCAR-4 cells at 10 uM incubated for 48 hrs by sulforhodamine B assay relative to control
[31] = system: OVCAR-8; experiment: Growth inhibition of human OVCAR-8 cells at 10 uM incubated for 48 hrs by sulforhodamine B assay relative to control
[32] = system: SK-OV-3; experiment: Growth inhibition of human SK-OV-3 cells at 10 uM incubated for 48 hrs by sulforhodamine B assay relative to control
[33] = system: ACHN; experiment: Growth inhibition of human ACHN cells at 10 uM incubated for 48 hrs by sulforhodamine B assay relative to control
[34] = system: RXF 393; experiment: Growth inhibition of human RXF 393 cells at 10 uM incubated for 48 hrs by sulforhodamine B assay relative to control
[35] = system: SN12C; experiment: Growth inhibition of human SN12C cells at 10 uM incubated for 48 hrs by sulforhodamine B assay relative to control
[36] = system: TK-10; experiment: Growth inhibition of human TK-10 cells at 10 uM incubated for 48 hrs by sulforhodamine B assay relative to control
[37] = system: UO-31; experiment: Growth inhibition of human UO-31 cells at 10 uM incubated for 48 hrs by sulforhodamine B assay relative to control
[38] = system: PC-3; experiment: Growth inhibition of human PC-3 cells at 10 uM incubated for 48 hrs by sulforhodamine B assay relative to control
[39] = system: DU-145; experiment: Growth inhibition of human DU-145 cells at 10 uM incubated for 48 hrs by sulforhodamine B assay relative to control
[40] = system: MCF7; experiment: Growth inhibition of human MCF7 cells at 10 uM incubated for 48 hrs by sulforhodamine B assay relative to control
[41] = system: MDA-MB-231; experiment: Growth inhibition of human MDA-MB-231 cells at 10 uM incubated for 48 hrs by sulforhodamine B assay relative to control
[42] = system: BT-549; experiment: Growth inhibition of human BT-549 cells at 10 uM incubated for 48 hrs by sulforhodamine B assay relative to control
[43] = system: T47D; experiment: Growth inhibition of human T47D cells at 10 uM incubated for 48 hrs by sulforhodamine B assay relative to control
[44] = system: MDA-MB-468; experiment: Growth inhibition of human MDA-MB-468 cells at 10 uM incubated for 48 hrs by sulforhodamine B assay relative to control

O=C(CN1CCCCC1)Nc1ccc(-c2nc3ccccc3s2)cc1
inhibition of growth at 10 µM [1]: 10.4% | inhibition of growth at 10 µM [2]: 15.8% | inhibition of growth at 10 µM [3]: 49.8% | inhibition of growth at 10 µM [4]: 14.3% | inhibition of growth at 10 µM [5]: 11.3% | inhibition of growth at 10 µM [6]: 56% | inhibition of growth at 10 µM [7]: 5.89% | inhibition of growth at 10 µM [8]: 7.87% | inhibition of growth at 10 µM [9]: 44.5% | inhibition of growth at 10 µM [10]: 20.8% | inhibition of growth at 10 µM [11]: -4.5% | inhibition of growth at 10 µM [12]: 9.72% | inhibition of growth at 10 µM [13]: 5.5% | inhibition of growth at 10 µM [14]: 28% | inhibition of growth at 10 µM [15]: 42.2% | inhibition of growth at 10 µM [16]: 3.6% | inhibition of growth at 10 µM [17]: 0.48% | inhibition of growth at 10 µM [18]: 4.43% | inhibition of growth at 10 µM [19]: -0.41% | inhibition of growth at 10 µM [20]: -0.02% | inhibition of growth at 10 µM [21]: 1.53% | inhibition of growth at 10 µM [22]: 22.8% | inhibition of growth at 10 µM [23]: 21% | inhibition of growth at 10 µM [24]: -5.76% | inhibition of growth at 10 µM [25]: -6.67% | inhibition of growth at 10 µM [26]: -9.51% | inhibition of growth at 10 µM [27]: 9.16% | inhibition of growth at 10 µM [28]: 2.05% | inhibition of growth at 10 µM [29]: 5.84% | inhibition of growth at 10 µM [30]: 4.89% | inhibition of growth at 10 µM [31]: -3.73% | inhibition of growth at 10 µM [32]: 4.61% | inhibition of growth at 10 µM [33]: -5.42% | inhibition of growth at 10 µM [34]: 13% | inhibition of growth at 10 µM [35]: 6.04% | inhibition of growth at 10 µM [36]: -14.8% | inhibition of growth at 10 µM [37]: 6.94% | inhibition of growth at 10 µM [38]: 15.5% | inhibition of growth at 10 µM [39]: 0.74% | inhibition of growth at 10 µM [40]: 75.1% | inhibition of growth at 10 µM [41]: 41.5% | inhibition of growth at 10 µM [42]: 1.67% | inhibition of growth at 10 µM [43]: 17.8% | inhibition of growth at 10 µM [44]: 73.7%

Source: ChEMBL document CHEMBL4765227, “Hit to lead optimization of a series of N-[4-(1,3-benzothiazol-2-yl)phenyl]acetamides as monoacylglycerol lipase inhibitors with potential anticancer activity” (Eur J Med Chem, 2016)
